This note sets out measurements from patent US20040029889A1, “Heteroaryl alkyl piperazine derivatives as fatty acid oxidation inhibitors” (priority 2000, published 2004).

Data set [1] can be described thus: Metabolic stability in human liver S-9 fractions. The format is in vitro ADME. Conditions: % parent remaining after 30 min at 37 C divided by average % ranolazine remaining (57%), >1.2 better, 0.8-1.2 equivalent, <0.8 less stable than ranolazine. On the procedure:
Metabolic Stability: As a measure of metabolic stability the compounds of this invention were incubated with human liver S-9 microsomal fractions. After, 30 minutes at 37 C, the amount of parent drug remaining was determined using LC-mass spec. The response factors for each compound was determined by establishing a standard curve and using an internal standard during the analysis of the samples. An average of five experiments for percentage of ranolazine remaining at the 30 minute time point is 57%. The compounds of this invention were assayed as described in the protocol below and the percentage of parent remaining was divided by the average % of ranolazine remaining (57%) affording a metabolic stability factor. A compound with a stability number greater than 1.2 has a better stability than ranolazine in the liver S-9 assay. A compound with a stability number between 1.2 and 0.8 has an equivalent stability in the liver S-9 assay.
The purpose of this experiment is to compare the percentages remaining for compounds of this invention with the percentage remaining for ranolazine after 30 minutes of incubation with human liver S9 fractions.
The following reagents were used; Potassium phosphate, 0.5M pH 7.4 (incubation buffer), kept at room temperature; 0.05M MgCl2 kept at 4° C.; β-Nicotinamide adenine dinucleotide phosphate, tetrasodium salt, reduced form (NADPH), 0.02M solution in water (˜16.6 mg/mL) from Sigma Lot # 79H7044 prepared on day of use. 1 mM of ranolazine or Compounds 43, 45, 47, 52, 70, 74, 76, 78, and 80 in ACN further diluted to obtain 100 μM in 10% ACN; Human S9 stock: 20 mg/mL from Gentest.
Incubation mixtures were prepared as follows:
Combine all components with incubation buffer and re-pipette 200 μL/tube+25 μL of the compound being tested along with 25 μL of S-9.
After 5 min of pre-incubation at 37° C., at 0 and 30 min after starting the reaction, a 50 μl aliquot of the incubation mixture was removed and added to 100 μL of 9:1 acetonitrile: methanol containing the internal standard.
The mixture was centrifuged and a 100 μL aliquot of the supernatant was diluted in 1 mL of solvent C (0.1% Formic Acid in water). Then samples were analyzed for change between the ratio of compound to internal standard at time zero and 30 minutes by LC/MS (injected 10 μL).
Samples were analyzed for the starting compounds and potential metabolite/s by LC/MS using an internal standard and an ODS-C18 column with a flow rate of 0.25 ml/min.

In data set [2] the test system is mitochondrial fatty acid oxidation using palmitoyl CoA as substrate. Put plainly: Palmitoyl CoA oxidation in isolated rat heart mitochondria. Conditions: 1-C14 palmitoyl CoA substrate, 15 min at 30° C., vs DMSO control; for Inhibition of mitochondrial fatty acid oxidation, % of Control, 50 μm (%): 50 μm compound; for Inhibition of mitochondrial fatty acid oxidation, % of Control, 100 μm (%): 100 μm compound. The format is biochemical. On the procedure: Rat heart mitochondria were isolated by the method of Nedergard and Cannon (Methods in Enzymol. 55, 3, 1979).
Palmitoyl CoA oxidation—The Palmityl CoA oxidation was carried out in a total volume of 100 micro liters containing the following agents: 110 mM KCl, 33 mM Tris buffer at pH 8, 2 mM KPi, 2 MM MgCl2, 0.1 MM EDTA, 14.7 microM defatted BSA, 0.5 mM malic acid, 13 mM carnitine, 1 mM ADP, 52 micrograms of mitochondrial protein, and 16 microM 1-C14 palmitoyl CoA (Sp. Activity 60 mCi/mmole; 20 microCi/ml, using 5 microliters per assay). The compounds of this invention were added in a DMSO solution at the following concentrations: 100 microM, and 50 microM. In each assay, a DMSO control was used. After 15 min at 30° C., the enzymatic reaction was centrifuged (20,000 g for 1 min), and 70 microliters of the supernatant was added to an activated reverse phase silicic acid column (approximately 0.5 ml of silicic acid). The column was eluted with 2 ml of water, and 0.5 ml of the eluent was used for scintillation counting to determine the amount of C^14 trapped as C^14 bicarbonate ion.

Structures are written as SMILES.

Take `Cc1cccc(C)c1NC(=O)CN1CCN(CC(O)COc2cnc3ccccc3n2)CC1` (centres unmarked) [Compound 70, N-(2,6-dimethylphenyl)-2-{4-[2-hydroxy-3-(quinoxalin-2-yloxy)-propyl]-piperazin-1-yl}acetamide]: the “Liver S9 Stability Factor” value in data set [1] was determined as 0.1.

Take `Cc1cccc(C)c1NC(=O)CN1CCN(CC(O)COc2ccc3oc(-c4cccc(C(F)(F)F)c4)nc3c2)CC1` (centres unmarked) [Compound 7, N-(2,6-dimethyl-phenyl)-2-(4-{2-hydroxy-3-[2-(3-trifluoromethylphenyl)benzoxazol-5-yloxy]-propyl}-piperazin-1-yl)acetamide]: the “Inhibition of mitochondrial fatty acid oxidation, % of Control, 50 μm (%)” value (“Inhibition … 50 μm (%)” for short) in data set [2] was 77%. In the case of `Cc1cccc(C)c1NC(=O)CN1CCN(CC(O)COc2nc3ccccc3s2)CC1` (centres unmarked) [Compound 43, 2-{4-[3-(benzothiazol-2-yloxy)-2-hydroxy-propyl]-piperazin-1-yl}-N-(2,6-dimethylphenyl)acetamide], the “Inhibition of mitochondrial fatty acid oxidation, % of Control, 100 μm (%)” value (“Inhibition … 100 μm (%)” for short) in data set [2] is recorded as 21%. Further, the “Liver S9 Stability Factor” value in data set [1] turned out to be 0.6. The like results for `Cc1nc2cc(OCC(O)CN3C(C)CN(CC(=O)Nc4c(C)cccc4C)CC3C)ccc2s1` (centres unmarked) [Compound 52, N-(2,6-dimethylphenyl)-2-{4-[2-hydroxy-3-(2-methyl-benzothiazol-5-yloxy)-propyl]-3,5-dimethyl-piperazine-1-yl}acetamide] were, in that order, 95% and 0.5. As to `Cc1cccc(C)c1NC(=O)CN1CCN(CC(O)COc2ccc3ncsc3c2)CC1` (centres unmarked) [Compound 47, 2-{4-[3-(benzothiazol-6-yloxy)2-hydroxy-propyl]-piperazin-1-yl}-N-(2,6-dimethylphenyl)-acetamide], in data set [2], the “Inhibition … 100 μm (%)” value amounted to 70%. Further, the “Liver S9 Stability Factor” value in data set [1] is listed as 1.5. Regarding `Cc1cccc(C)c1NC(=O)CN1CCN(CC(O)COc2cccnc2)CC1` (centres unmarked) [Compound 72, N-(2,6-dimethylphenyl)-2-{4-[2-hydroxy-3-(pyridin-3-yloxy)-propyl]-piperazin-1-yl}acetamide], in data set [2], the “Inhibition … 100 μm (%)” value is 8%. For the compound `Cc1cccc(C)c1NC(=O)CN1CCN(CC(O)COc2cccc3[nH]c(C(N)=O)cc23)CC1` (centres unmarked) [Compound 46], in data set [2], the “Inhibition … 100 μm (%)” value is recorded as 61%. Further, in data set [1], the “Liver S9 Stability Factor” value was 1.1. In the case of `Cc1nc2ccc(OCC(O)CN3CCN(CC(=O)Nc4c(C)cccc4C)CC3)cc2s1` (centres unmarked) [Compound 49, N-(2,6-dimethylphenyl)-2-{4-[2-hydroxy-3-(2-methyl-benzothiazol-6-yloxy)-propyl]-piperazin-1-yl}aceamide], in data set [2], the “Inhibition … 100 μm (%)” value worked out at 3%. Take `Cc1cccc(C)c1NC(=O)CN1CCN(CC(O)COc2ccc3ncccc3c2)CC1` (centres unmarked) [Compound 78]: the “Inhibition … 100 μm (%)” value in data set [2] was found to be 42%. Further, the “Liver S9 Stability Factor” value in data set [1] is listed as 0.6. `Cc1nc2cc(OCC(O)CN3CCN(CC(=O)Nc4c(C)cccc4C)CC3)ccc2s1` (centres unmarked) [Compound 45]: the “Inhibition … 100 μm (%)” value in data set [2] is on record as 87%. The “Liver S9 Stability Factor” value in data set [1] was 0.8.

For `Cc1nc2cc(OCC(O)CN3CCN(CC(=O)Nc4c(C)cccc4C)C(=O)C3)ccc2s1` (centres unmarked) [Compound 64, N-(2,6-dimethylphenyl)-2-{4-[2-hydroxy-3-(2-methyl-benzothiazol-5-yloxy)-propyl]-2-oxo-piperazin-1-yl}acetamide], the “Inhibition … 100 μm (%)” value in data set [2] stood at 41%.

As for `Cc1cccc(C)c1NC(=O)CN1CCN(CC(O)CNc2nc3ccccc3s2)CC1` (centres unmarked) [Compound 39, 2-{4-[3-(benzothiazol-2-ylamino)-2-hydroxypropyl]piperazinyl}-N-(2,6-dimethylphenyl)acetamide], the “Inhibition … 100 μm (%)” value in data set [2] worked out at 27%.

As for `Cc1cccc(C)c1NC(=O)CN1CCN(CC(O)COc2cccc3cnccc23)CC1` (centres unmarked) [Compound 76, N-(2,6-dimethylphenyl)-2-{4-[2-hydroxy-3-(isoquinolin-5-yloxy)-propyl]-piperazin-1-yl}acetamide], the “Inhibition … 100 μm (%)” value in data set [2] is 26%. For the same compound, the “Liver S9 Stability Factor” value in data set [1] amounted to 0.8. For the compound `Cc1cccc(C)c1NC(=O)CN1CCN(CC(O)COc2cccc3nc(-c4ccccc4)sc23)CC1` (centres unmarked) [Compound 62], the “Inhibition … 50 μm (%)” value in data set [2] turned out to be 62%.

As to `Cc1cccc(C)c1NC(=O)CN1CCN(CC(O)COc2ccc3oc(-c4ccccc4)nc3c2)CC1` (centres unmarked) [Compound 60, N-(2,6-dimethylphenyl)-2-{4-[2-hydroxy-3-(2-phenyl-benzoxazol-5-yloxy)-propyl)-piperazin-1-yl}acetamide], the “Inhibition … 50 μm (%)” value in data set [2] worked out at 61%.

With `Cc1cccc(C)c1NC(=O)CN1CCN(CC(O)COc2ccc3oc(-c4ccc(C(F)(F)F)cc4)nc3c2)CC1` (centres unmarked) [Compound 68, N-(2,6-dimethylphenyl)-2-(4-{2-hydroxy-3-[2-(4-trifluoromethyl-phenyl)-benzoxazol-5-yloxy]-propyl}-piperazin-1-yl)acetamide], the “Inhibition … 50 μm (%)” value in data set [2] was found to be 68%. For `Cc1nc2cc(OCC(O)CN3CCN(CC(=O)Nc4ccc(O)cc4)CC3)ccc2s1` (centres unmarked) [Compound 54, 2-{14-[2-hydroxy-3-(2-methyl-benzothiazol-5-yloxy)-propyl]-piperazin-1-yl}-N-(4-hydroxy-phenyl)acetamide], the “Inhibition … 100 μm (%)” value in data set [2] came out at 81%. On the same count and under the same terms, to `Cc1cccc(C)c1NC(=O)CN1CCN(CC(O)CNc2nc3ccccc3o2)CC1` (centres unmarked) [Compound 82, 2-{4-[3-(benzoxazol-2-ylamino)-2-hydroxypropyl]piperazinyl}-N-(2,6-dimethylphenyl)acetamide] belongs 22%. As to `Cc1ccc2ccc(OCC(O)CN3CCN(CC(=O)Nc4c(C)cccc4C)CC3)cc2n1` (centres unmarked) [Compound 80, N-(2,6-dimethylphenyl)-2-{4-[2-hydroxy-3-(2-methyl-quinolin-7-yloxy)-propyl]-piperazin-1-yl}acetamide], the “Inhibition … 100 μm (%)” value in data set [2] is 22%. Moreover, the “Liver S9 Stability Factor” value in data set [1] came to 0.5. For `Cc1cccc(C)c1NC(=O)CN1CCN(CC(O)COc2ccnc3ccccc23)CC1` (centres unmarked) [Compound 74, N-(2,6-dimethylphenyl)-2-{4-[2-hydroxy-3-(quinolin-4-yloxy)-propyl]-piperazin-1-yl}acetamide], in that order: 12% and 1.0.
